Test results: ChEMBL document CHEMBL1125733, “Fluoronaphthyridines and -quinolones as antibacterial agents. 3. Synthesis and structure-activity relationships of new 1-(1,1-dimethyl-2-fluoroethyl), 1-[1-methyl-1-(fluoromethyl)-2-fluoroethyl], and 1-[1,1-(difluoromethyl)-2-fluoroethyl] substituted derivatives” (J Med Chem, 1991)

Key:
Escherichia coli = experiment: In vitro antibacterial activity against Escherichia coli A 15119; type: functional
Pseudomonas aeruginosa = experiment: Compound was tested in vitro for its antibacterial activity (minimum inhibitory concentration, MIC) against Pseudomonas aeruginosa A 9843; type: functional
Staphylococcus aureus [1] = experiment: In vitro antibacterial activity against Staphylococcus aureus A 24227; type: functional
Morganella morganii = experiment: In vitro antibacterial activity against Morganella morganii A 15153; type: functional
Serratia marcescens = experiment: In vitro antibacterial activity (minimum inhibitory concentration) against Serratia marcescens A 20019.; type: functional
Bacteroides fragilis = experiment: Compound was tested in vitro for its antibacterial activity (minimum inhibitory concentration) against Bacteroides fragilis A 22862.; type: functional; conditions: A22862
Haemophilus influenzae = experiment: In vitro antibacterial activity against Haemophilus influenzae A 21515; type: functional
Enterococcus faecalis = experiment: In vitro antibacterial activity against Enterococcus faecalis A 9809; type: functional
Proteus mirabilis = experiment: In vitro antibacterial activity (minimum inhibitory concentration, MIC) against Proteus mirabilis A 9900; type: functional
Streptococcus pneumoniae = experiment: In vitro antibacterial activity against Streptococcus pneumoniae A 9585; type: functional
Enterobacter cloacae = experiment: In vitro antibacterial activity against Enterobacter cloacae A 9656; type: functional
Klebsiella pneumoniae = experiment: In vitro antibacterial activity against Klebsiella pneumoniae A 9664; type: functional
Staphylococcus aureus [2] = experiment: In vitro antibacterial activity (minimum inhibitory concentration, MIC) against Staphylococcus aureus A 9537.; type: functional

Compound | MIC (Escherichia coli) [mg/L] | MIC (Pseudomonas aeruginosa) [mg/L] | MIC (Staphylococcus aureus [1]) [mg/L] | MIC (Morganella morganii) [mg/L] | MIC (Serratia marcescens) [mg/L] | MIC (Bacteroides fragilis) [mg/L] | MIC (Haemophilus influenzae) [mg/L] | MIC (Enterococcus faecalis) [mg/L] | MIC (Proteus mirabilis) [mg/L] | MIC (Streptococcus pneumoniae) [mg/L] | MIC (Enterobacter cloacae) [mg/L] | MIC (Klebsiella pneumoniae) [mg/L] | MIC (Staphylococcus aureus [2]) [mg/L] | S [µg/mL]
CC(C)(CF)n1cc(C(=O)O)c(=O)c2cc(F)c(N3CCNCC3)cc21.Cl | 0.016 | 0.25 | 0.06 | 0.016 | 0.06 | 8 | 0.016 | 0.25 | 0.03 | 1 | 0.03 | 0.016 | 0.13 | 
C[C@H]1C[C@H](N)CN1c1nc2c(cc1F)c(=O)c(C(=O)O)cn2C(CF)(CF)CF.Cl | 0.5 | 32 | 1 | 2 | 2 | 125 | 0.5 | 4 | 4 | 8 | 1 | 2 | 0.5 | 
Cl.O=C(O)c1cn(C(CF)(CF)CF)c2nc(N3CCNCC3)c(F)cc2c1=O | 0.5 | 16 | 8 | 0.5 | 1 | 125 | 0.5 | 16 | 2 | 32 | 0.5 | 1 | 8 | 
Cl.N[C@H]1CCN(c2nc3c(cc2F)c(=O)c(C(=O)O)cn3C(CF)(CF)CF)C1 | 0.5 | 32 | 8 | 2 | 2 | 125 | 0.25 | 32 | 2 | 32 | 2 | 2 | 4 | 
Cl.O=C(O)c1cn(C(CF)(CF)CF)c2nc(N3CC4C[C@@H]3CN4)c(F)cc2c1=O | 0.25 | 4 | 4 | 0.25 | 1 | 125 | 0.06 | 32 | 1 | 32 | 0.25 | 0.5 | 4 | 240
CC(CF)(CF)n1cc(C(=O)O)c(=O)c2cc(F)c(N3CC4C[C@@H]3CN4)nc21.Cl | 0.13 | 1 | 2 | 0.13 | 0.5 | 32 | 0.016 | 4 | 0.5 | 8 | 0.13 | 0.5 | 2 | 

Other lines, results leading:

MIC (Escherichia coli) [mg/L] | MIC (Pseudomonas aeruginosa) [mg/L] | MIC (Staphylococcus aureus [1]) [mg/L] | MIC (Morganella morganii) [mg/L] | MIC (Serratia marcescens) [mg/L] | MIC (Bacteroides fragilis) [mg/L] | MIC (Haemophilus influenzae) [mg/L] | MIC (Enterococcus faecalis) [mg/L] | MIC (Proteus mirabilis) [mg/L] | MIC (Streptococcus pneumoniae) [mg/L] | MIC (Enterobacter cloacae) [mg/L] | MIC (Klebsiella pneumoniae) [mg/L] | MIC (Staphylococcus aureus [2]) [mg/L] | S [µg/mL] | Compound
0.016 | 0.25 | 0.25 | 0.13 | 0.13 | 8 | 0.008 | 0.5 | 0.06 | 1 | 0.06 | 0.06 | 0.5 |  | CC(C)(CF)n1cc(C(=O)O)c(=O)c2cc(F)c(N3C[C@H]4CC3CN4)cc21.Cl
0.03 | 1 | 0.13 | 0.06 | 0.25 | 16 | 0.5 | 4 | 0.5 | 0.03 | 0.13 | 0.03 | 0.03 |  | CC(C)(CF)n1cc(C(=O)O)c(=O)c2cc(F)c(N3CC[C@H](N)C3)nc21.Cl
0.004 | 0.5 | 0.016 | 0.016 | 0.13 | 2 | 0.06 | 0.5 | 0.06 | 1 | 0.06 | 0.016 | 0.016 |  | CC(C)(CF)n1cc(C(=O)O)c(=O)c2cc(F)c(N3CC(N)C3)cc21.Cl
0.016 | 1 | 0.008 | 0.13 | 0.13 | 16 | 0.016 | 0.13 | 0.13 | 0.13 | 0.06 | 0.06 | 0.008 |  | C[C@H]1C[C@H](N)CN1c1nc2c(cc1F)c(=O)c(C(=O)O)cn2C(C)(C)CF.Cl
